Measurements taken from PubChem BioAssay AID493102 (Broad Institute, 2011).

Tested on: SK-MEL-5 TRPM1-promoter luciferase reporter, 24 h
Experiment: reducers of TRPM1 reporter luminescence, concentration series – cell-based, SK-MEL-5, cherry-picked, set 4, MITF inhibitor project, dose response (AID 493102);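 further: actives lower the luciferase signal so the potency reflects inhibition of reporter expression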

SMILES	AC50 [µM]
O=C(O)c1cc2ccccc2c(N=Nc2cccnc2)c1O	11.4
O=C(Nc1ccc(OC(=O)N2CCCCC2)cc1)N1CCOCC1	27.4
CCOC(=O)c1c(C)oc2c1C(=O)c1ccccc1C2=O	3.18
CC1(C)CC(=O)C=C(NC2=CC3OC(c4ccccc4)OCC3OC2=O)C1 (stereo unspecified)	7.71
CCOC(=O)/C=c1\s/c(=C\c2ccc3cc(OC)ccc3c2)c(=O)n1CC(=O)NCC1CCCO1 (stereo unspecified)	5.73
C=CC[n+]1c(-c2ccc(C)cc2)csc1Nc1ccc(NC(C)=O)cc1	1.57
CC(C)C(=O)N1CCN(c2ccc(NC(=O)c3ccc([N+](=O)[O-])o3)cc2Cl)CC1	7.05
CC1CCN(CC2C(=O)O[C@@H]3C[C@@]4(C)CCC[C@H](C)C4=C[C@H]23)CC(C)(C)C1 (stereo partly specified)	16.1
Cc1nc(Sc2nnnn2C)c2c3c(sc2n1)CCC3	4.98
O=C(CSCC(=O)Nc1ccccc1)N/N=C/c1c(O)ccc2ccccc12	3.33
COc1cc(NC(=O)COc2cc(O)c3c(c2)OC(C)(C)CC3=O)cc(OC)c1OC	5.36
COc1ccc(C(=O)NC(=O)Nc2cc(C)ccn2)cc1	4.96
COc1cc2c(cc1/C=C/[N+](=O)[O-])OCO2	8.98
Cc1nc(NC(=O)/C=C/c2ccccc2)n[nH]1	17.8
CCOc1cc(/C=C\[N+](=O)[O-])ccc1OCC(=O)N1CCOCC1	7.35
O=C(CCl)N(c1ccccc1)C1CCCCC1	4.51
O=C(Cn1ncc(Cl)c(Cl)c1=O)N1CCc2ccccc21	6.1
CC(=O)Nc1ccc(Nc2c3ccccc3nc3ccccc23)cc1	4.9
Cn1cc([N+](=O)[O-])c(C(=O)Nc2nc(-c3ccc(Cl)cc3)cs2)n1	10.5
CC[n+]1c(-c2ccccc2)c2cc(N)ccc2c2ccc(N)cc21	2.42
Cc1ccc(S(=O)(=O)Nc2cccc3cccnc23)cc1	5.55

SMILES	AC50 [µM]
COc1cc2nc(SCC(=O)NCc3ccco3)n(Cc3ccc(Cl)cc3)c(=O)c2cc1OC	13.2
COc1ccc(-n2c(C)cc(C(=O)CCl)c2C)cc1	6.44
CC1CN(C(=O)CCC(=O)NCCCN2CCC(Cc3ccccc3)CC2)c2cc(Cl)ccc2O1 (stereo unspecified)	16.2
C=CCn1c(C)cc(C2=NNC(=NC(C)(C)C)SC2)c1C	4.09
COc1ccc(N(C(=O)CCl)C(C(=O)NC2CCCCC2)c2cccnc2)cc1 (stereo unspecified)	5.87
COc1cccc(/C=C2/Sc3ccc(C(=O)NCCN4CCCC4)cc3NC2=O)c1	17.9
CC(=O)Nc1nc(C)c(-c2csc(Nc3cccc(C(C)=O)c3)n2)s1	8.38
Cc1cc(Sc2ncnc(N)c2[N+](=O)[O-])ncn1	7.61
C/C(=N/NC(=O)C(O)(c1ccccc1)c1ccccc1)c1ccc([N+](=O)[O-])o1	9.84
COC(=O)C1=C(C)N(Cc2ccccc2)C(=NCc2ccccc2)N[C@H]1c1ccccc1	18
Cn1nnnc1Sc1ncnc2scc(-c3cccs3)c12	7
Cc1ccc(-c2c[n+](Cc3ccc(Cl)cc3)c3n2CCC3)cc1	14.2
CCC(=O)OCCNc1cc(Sc2nccn2C)c2nonc2c1[N+](=O)[O-]	7.16
NC(=O)c1cc([N+](=O)[O-])ccc1NCc1ccc(N)cc1	1.41
O=C1NC2c3c(I)sc(I)c3C(=O)C2O1 (stereo unspecified)	15.5
O=C1C=CC(=C(c2ccc(O)cc2)c2ccc(O)cc2)C=C1	9.92
CC(C)Oc1ccc(C(CCN)C2CCCCC2)cc1 (stereo unspecified)	9.99
O=[N+]([O-])c1cc(CN2CCN(c3ccccc3)CC2)c(O)c2ncccc12	8.3
CC(C)c1oc(=O)cc2c1[C@@H](O)[C@H]1OC(=O)[C@@]3(C)C[C@@H](O)[C@@H](O)[C@@]2(C)C13 (stereo partly specified)	1.63
O=C(CNc1cccc([N+](=O)[O-])c1)N/N=C/c1ccc([N+](=O)[O-])o1	8.63
CN(c1ccc2nc3ccccc3c(=O)n2n1)C1CCCCC1	1.29

SMILES	AC50 [µM]
O=[N+]([O-])c1ccc(S(=O)(=O)CC(CN2CCCCC2)N2CCCCC2)cc1 (stereo unspecified)	4.88
Cc1nc2ccccn2c1C(=O)N/N=C/c1ccc([N+](=O)[O-])o1	8.03
COc1ccc(C(=O)Nc2ccc(C)cn2)c(OC)c1	3.7
CC(C)Oc1ccc(C(CCNCc2ccc(O)cc2)c2ccccc2)cc1 (stereo unspecified)	12.8
[2H]C(CCOS(N)(=O)=O)c1ccc(C(C)(C)C)cc1 (stereo unspecified)	0.487
Cc1ccc(/C=N/Nc2ccc(C(=O)O)cc2)s1	3.3
Cc1ccccc1-c1nc(-c2ccccn2)no1	4.18
CC(=O)SC(C[N+](=O)[O-])c1cn(C(C)=O)c2ccccc12 (stereo unspecified)	3.54
NCCCNc1nc(N)c([N+](=O)[O-])c(NC2CCCCC2)n1	6.36
COc1ccc(S(=O)(=O)N(C(C)=O)c2ccc(OC(C)=O)c3ccccc23)cc1[N+](=O)[O-]	11.6
CC(C)C(CCNC1CCN(C)CC1)c1ccc(Cl)cc1 (stereo unspecified)	11.9
CC(C)(C)c1ccc(-c2cn(-c3ccc(Br)cc3)c3[n+]2CCCS3)cc1	3.2
CC(=O)N1CCc2c(sc(NC(=O)c3ccc([N+](=O)[O-])o3)c2C#N)C1	2.22
CCOc1ccccc1NC(=O)C(=O)N/N=C/c1cc(Br)ccc1O	3.34
CN(CCC#N)C(=O)COC(=O)c1ccccc1C(=O)c1ccc(Cl)c([N+](=O)[O-])c1	10.9
COc1ccccc1-c1cc(C(F)(F)F)nc(S(C)(=O)=O)n1	6.81
O=C1NC(=O)C(=Cc2ccc(-c3ccc(Cl)cc3)o2)C(=O)N1	9.2
Cc1cc(-n2c(C)cc(C(=O)CCl)c2C)no1	5.5
CCOc1cc(/C=C(/C#N)c2ccc(Cl)cc2)cc(Cl)c1OCC(=O)O	5.61
CCCN1CCC(NCc2cn(C)nc2-c2ccc(Oc3ccccc3)cc2)CC1	8.35
CC(=NNC(=S)N1CCN(c2ccccn2)CC1)c1nccs1	0.681

SMILES	AC50 [µM]
COc1cc2c(c(OC)c1OC)-c1ccc(N(C)CC(OC)OC)c(=O)cc1[C@@H](NC(C)=O)CC2	2.04
O=C(N/N=C/c1ccc([N+](=O)[O-])s1)C(O)c1ccccc1 (stereo unspecified)	4.48
Cc1cc(C)nc(S/C=C/C(=O)c2ccccc2F)n1	5.38
COc1ccc(C(=O)/C=C/C(=O)N(CC(=O)NC2CCCCC2)Cc2cccs2)c(O)c1	5.53
CCSC1(SCC)N=C(N)C2(C#N)C(c3ccc(F)cc3)C12C#N (stereo unspecified)	14
C#CC(=O)N(c1ccc(OC)c(OC)c1)C(C(=O)NC1CCCC1)c1cccs1 (stereo unspecified)	3.31
CC1CCC(C(C)C)C(OC(=O)Cn2c(-c3ccccc3)[n+](C)c3ccccc32)C1 (stereo unspecified)	2.37
CC(=O)OCCNc1cc(Sc2nc3ccccc3[nH]2)c2nonc2c1[N+](=O)[O-]	11.5
Oc1ccc(CNc2ccccc2F)c2cccnc12	15.1
CCCC(=O)NC(c1ccc(OC)c(OC)c1)c1cc(Cl)c2cccnc2c1O (stereo unspecified)	9.06
O=C(/C=C/c1cccc([N+](=O)[O-])c1)c1cccs1	15.3
Cn1nnnc1Sc1ncnc2scc(-c3cccc(F)c3)c12	5.98
C=C1C(=O)O[C@@]23[C@H]1CC[C@@H](C)[C@@H]2CC[C@@]1(C)O[C@@H]31	5.22
CCCCn1c(=O)[nH]c(=O)c2c1nc(Cn1ncc(Cl)c(Cl)c1=O)n2CCC	8.12
CC(=O)NC1=C(N(C)C2CCS(=O)(=O)C2)C(=O)c2ccccc2C1=O (stereo unspecified)	21.2
CC(=O)CSc1ccc(-c2nc3cc(C)c(C)cc3[nH]2)cn1	3.67
Cc1ccc(S(=O)(=O)/N=C2\C(=O)c3ccccc3C([O-])=C2n2cc[n+](CCC(C)C)c2)cc1	4.11
CCC[n+]1c(C)sc2c3c(ccc21)CCCC3	9.87
